Results as given in patent US20250147039A1, “Compounds for complexation of rare earth elements and/or s-, p-, d- block metals, their coordination compounds, peptide conjugates, method of their preparation and use thereof” (USTAV ORGANICKE CHEMIE A BIOCHEMIE AV CR V.V.I., priority 2021, published 2025).

Experiments:
[1] = Formation of 1,5-cz-[Ln(Lig)] from Lig and Ln^III ions (metal dependent click-zip), MOPS/NaOH buffer pH 7.0, analytical HPLC (Charts 1, 2); conditions: MOPS/NaOH buffer pH 7.0
[2] = pH dependent formation of 1,5- and 1,4-cz-Lig isomers from Lig (pH dependent click-zip) (Chart 13); format: physicochemical
[3] = A: 1 hour at 80° C., 0.1M HClO4 (pH ~1)
[4] = A: 1 hour at 80° C., 1.0M HClO4 (pH ~0)
[5] = A: 1 hour at 80° C., pH 2.2, 50 mM aq. buffer
[6] = A: 1 hour at 80° C., pH 3.0, 50 mM aq. buffer
[7] = A: 1 hour at 80° C., pH 3.8, 50 mM aq. buffer
[8] = A: 1 hour at 80° C., pH 4.6, 50 mM aq. buffer
[9] = A: 1 hour at 80° C., pH 5.4, 50 mM aq. buffer
[10] = A: 1 hour at 80° C., pH 6.2, 50 mM aq. buffer
[11] = A: 1 hour at 80° C., pH 7.0, 50 mM aq. buffer
[12] = A: 1 hour at 80° C., pH 8.6, 50 mM aq. buffer
[13] = A: 1 hour at 80° C., pH 9.4, 50 mM aq. buffer
[14] = A: 1 hour at 80° C., pH 10.2, 50 mM aq. buffer
[15] = B: 1 day at 80° C., 0.1M HClO4 (pH ~1)
[16] = B: 1 day at 80° C., 1.0M HClO4 (pH ~0)
[17] = B: 1 day at 80° C., pH 2.2, 50 mM aq. buffer
[18] = B: 1 day at 80° C., pH 3.0, 50 mM aq. buffer
[19] = B: 1 day at 80° C., pH 3.8, 50 mM aq. buffer
[20] = B: 1 day at 80° C., pH 4.6, 50 mM aq. buffer
[21] = B: 1 day at 80° C., pH 5.4, 50 mM aq. buffer
[22] = B: 1 day at 80° C., pH 6.2, 50 mM aq. buffer
[23] = B: 1 day at 80° C., pH 7.0, 50 mM aq. buffer
[24] = B: 1 day at 80° C., pH 8.6, 50 mM aq. buffer
[25] = B: 1 day at 80° C., pH 9.4, 50 mM aq. buffer
[26] = B: 1 day at 80° C., pH 10.2, 50 mM aq. buffer

- conversion to 1,5-cz-[Ln(Lig)], Gd^III ([1]; after 1 week at 80° C.): 92%
- conversion to 1,5-cz-[Ln(Lig)], Gd^III ([1]; after 1 hour at 80° C.): 5%
- conversion to 1,5-cz-[Ln(Lig)], Ho^III ([1]; after 1 week at 80° C.): 95%
- conversion to 1,5-cz-[Ln(Lig)], Ho^III ([1]; after 1 hour at 80° C.): 21%
- conversion to 1,5-cz-[Ln(Lig)], La^III ([1]; after 1 week at 80° C.): 49%
- conversion to 1,5-cz-[Ln(Lig)], La^III ([1]; after 1 hour at 80° C.): 1%
- conversion to 1,5-cz-[Ln(Lig)], Lu^III ([1]; after 1 week at 80° C.): 96%
- conversion to 1,5-cz-[Ln(Lig)], Lu^III ([1]; after 1 hour at 80° C.): 64%
- conversion to 1,5-cz-[Ln(Lig)], Nd^III ([1]; after 1 week at 80° C.): 79%
- conversion to 1,5-cz-[Ln(Lig)], Nd^III ([1]; after 1 hour at 80° C.): 1%
- conversion to 1,5-cz-[Ln(Lig)], Pr^III ([1]; after 1 week at 80° C.): 69%
- conversion to 1,5-cz-[Ln(Lig)], Pr^III ([1]; after 1 hour at 80° C.): 1%
- conversion to 1,5-cz-[Ln(Lig)], Sm^III ([1]; after 1 week at 80° C.): 86%
- conversion to 1,5-cz-[Ln(Lig)], Sm^III ([1]; after 1 hour at 80° C.): 3%
- conversion to 1,5-cz-[Ln(Lig)], Tb^III ([1]; after 1 week at 80° C.): 91%
- conversion to 1,5-cz-[Ln(Lig)], Tb^III ([1]; after 1 hour at 80° C.): 9%
- conversion to 1,5-cz-[Ln(Lig)], Tm^III ([1]; after 1 week at 80° C.): 96%
- conversion to 1,5-cz-[Ln(Lig)], Tm^III ([1]; after 1 hour at 80° C.): 48%
- conversion to 1,5-cz-[Ln(Lig)], Yb^III ([1]; after 1 week at 80° C.): 96%
- conversion to 1,5-cz-[Ln(Lig)], Yb^III ([1]; after 1 hour at 80° C.): 61%
- conversion to 1,4-cz-Lig isomer [2, 3]: 3%
- conversion to 1,5-cz-Lig isomer [2, 3]: 44%
- conversion to 1,4-cz-Lig isomer [2, 4]: 2%
- conversion to 1,5-cz-Lig isomer [2, 4]: 9%
- conversion to 1,4-cz-Lig isomer [2, 5]: 2%
- conversion to 1,5-cz-Lig isomer [2, 5]: 17%
- conversion to 1,4-cz-Lig isomer [2, 6]: 1%
- conversion to 1,5-cz-Lig isomer [2, 6]: 6%
- conversion to 1,4-cz-Lig isomer [2, 7]: 1%
- conversion to 1,5-cz-Lig isomer [2, 7]: 1%
- conversion to 1,4-cz-Lig isomer [2, 8]: 1%
- conversion to 1,5-cz-Lig isomer [2, 8]: 1%
- conversion to 1,4-cz-Lig isomer [2, 9]: 1%
- conversion to 1,5-cz-Lig isomer [2, 9]: 1%
- conversion to 1,4-cz-Lig isomer [2, 10]: 1%
- conversion to 1,5-cz-Lig isomer [2, 10]: 1%
- conversion to 1,4-cz-Lig isomer [2, 11]: 2%
- conversion to 1,5-cz-Lig isomer [2, 11]: 1%
- conversion to 1,4-cz-Lig isomer [2, 12]: 3%
- conversion to 1,5-cz-Lig isomer [2, 12]: 2%
- conversion to 1,4-cz-Lig isomer [2, 13]: 3%
- conversion to 1,5-cz-Lig isomer [2, 13]: 8%
- conversion to 1,4-cz-Lig isomer [2, 14]: 2%
- conversion to 1,5-cz-Lig isomer [2, 14]: 17%
- conversion to 1,4-cz-Lig isomer [2, 15]: 5%
- conversion to 1,5-cz-Lig isomer [2, 15]: 91%
- conversion to 1,4-cz-Lig isomer [2, 16]: 8%
- conversion to 1,5-cz-Lig isomer [2, 16]: 72%
- conversion to 1,4-cz-Lig isomer [2, 17]: 6%
- conversion to 1,5-cz-Lig isomer [2, 17]: 88%
- conversion to 1,4-cz-Lig isomer [2, 18]: 6%
- conversion to 1,5-cz-Lig isomer [2, 18]: 69%
- conversion to 1,4-cz-Lig isomer [2, 19]: 6%
- conversion to 1,5-cz-Lig isomer [2, 19]: 22%
- conversion to 1,4-cz-Lig isomer [2, 20]: 5%
- conversion to 1,5-cz-Lig isomer [2, 20]: 13%
- conversion to 1,4-cz-Lig isomer [2, 21]: 6%
- conversion to 1,5-cz-Lig isomer [2, 21]: 12%
- conversion to 1,4-cz-Lig isomer [2, 22]: 12%
- conversion to 1,5-cz-Lig isomer [2, 22]: 11%
- conversion to 1,4-cz-Lig isomer [2, 23]: 23%
- conversion to 1,5-cz-Lig isomer [2, 23]: 19%
- conversion to 1,4-cz-Lig isomer [2, 24]: 32%
- conversion to 1,5-cz-Lig isomer [2, 24]: 26%
- conversion to 1,4-cz-Lig isomer [2, 25]: 17%
- conversion to 1,5-cz-Lig isomer [2, 25]: 60%
- conversion to 1,4-cz-Lig isomer [2, 26]: 5%
- conversion to 1,5-cz-Lig isomer [2, 26]: 80%
Structure (SMILES): C#Cc1cccc(CN2CCN(CC(=O)O)CCN(Cc3cc(-c4ccccc4)cc(CN=[N+]=[N-])n3)CCN(CC(=O)O)CC2)n1 [TD647]
